From US8969554B2, “6-acyl-1,2,4-triazine-3,5-dione derivative and herbicides” (Kumiai Chemical Industry Co., Ltd., priority 2010, dated 2015)

Legend:
Format in all cases: in vivo
[1] = test system: Echinochloa oryzicola; test: Herbicidal activity by paddy field soil treatment (Test Example 1); set-up: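 index 0 to 10 in 10% steps of herbicidal effect with 10 meaning complete death and 0 below 10%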; details: 1000 g of effective component per hectare, evaluated on day 21 after the treatment, criteria of Table 72
Outline: (§1)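 Paddy soil was watered and puddled, seeded, then flooded to 3 cm. One day later the formulation, diluted with water, went onto the water surface at 1000 g/ha of active ingredient. After 21 days in the greenhouse, effects were scored.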

[2] = test system: Monochoria vaginalis; test: as above; set-up: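 index 0 to 10 in 10% steps of herbicidal effect with 10 meaning complete death and 0 below 10%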; details: 1000 g of effective component per hectare, evaluated on day 21 after the treatment, criteria of Table 72
Outline: as §1

[3] = test system: Scirpus juncoides Rocxb.; test: as above; set-up: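 index 0 to 10 in 10% steps of herbicidal effect with 10 meaning complete death and 0 below 10%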; details: applied on water surface, 1000 g of effective component per hectare, day 21 after the treatment
Outline: as §1

[4] = test system: A. retroflexus; test: Herbicidal activity by field soil treatment (Test example 2); set-up: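 index 0 to 10 in 10% steps of herbicidal effect with 10 meaning complete death and 0 below 10%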; details: 1000 g effective component per hectare, day 21 after the treatment
Outline: (§2)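 Field soil filled 80 cm^2 pots; seeds were sown, covered, and the soil surface treated with a small sprayer. Dose: 1000 g/ha of active component from a water-diluted wettable powder, applied in 1000 L/ha. Greenhouse cultivation followed, with evaluation at day 21.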

[5] = test system: Echinochloa crus-galli; test: as above; set-up: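 index 0 to 10 in 10% steps of herbicidal effect with 10 meaning complete death and 0 below 10%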; details: 1000 g effective component per hectare, day 21 after the treatment
Outline: as §2

[6] = test system: Indian millet; test: as above; set-up: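 index 0 to 10 in 10% steps of herbicidal effect with 10 meaning complete death and 0 below 10%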; details: 1000 g effective component per hectare, day 21 after the treatment
Outline: as §2

[7] = test system: foxtail; test: as above; details: 1000 g effective component per hectare, day 21 after the treatment;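 further: index 0 to 10 in 10% steps of herbicidal effect with 10 meaning complete death and 0 below 10%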
Experimental: [table] Test for Determining Herbicidal Activity by Field Soil Treatment A 80 cm^2 wide plastic pot was filled with a field soil and seeds of each of Echinochloa crus-galli, foxtail, Indian millet, and A. retroflexus were sowed and then covered with soil. The wettable powder produced with reference to the Formulation example 1 was diluted water, and applied on the soil surface by using a small sprayer in an amount of 1000 liters per hectare so that the effective component is 1000 g per hectare. After that, the plants were cultivated in a greenhouse, and on day 21 after the treatment, evaluation was made by the criteria described in Table 72 for determining the herbicidal effects.

[8] = test system: A. retroflexus; test: Herbicidal activity by field foliage treatment (Test example 3); set-up: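 index 0 to 10 in 10% steps of herbicidal effect with 10 meaning complete death and 0 below 10%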; details: 1000 g effective component per hectare, day 14 after the treatment
Outline: (§3)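 Seeds sown in field soil and kept 2 weeks in a greenhouse; foliage of the whole plant then sprayed with diluted wettable powder (1000 L/ha, 1000 g a.i./ha); plants returned to the greenhouse and scored for herbicidal effect on day 14.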

[9] = test system: Indian millet; test: as above; set-up: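 index 0 to 10 in 10% steps of herbicidal effect with 10 meaning complete death and 0 below 10%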; details: 1000 g effective component per hectare, day 14 after the treatment
Outline: as §3

[10] = test system: Echinochloa crus-galli; test: as above; set-up: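 index 0 to 10 in 10% steps of herbicidal effect with 10 meaning complete death and 0 below 10%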; details: 1000 g effective component per hectare, day 14 after the treatment
Outline: (§4)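 Herbicidal effect was rated on day 14 following a foliar spray of 1000 g active ingredient per hectare, applied as water-diluted wettable powder at 1000 L/ha. Plants had been raised for 2 weeks in field soil under greenhouse conditions before spraying.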

[11] = test system: Setaria viridis; test: as above; details: 1000 g effective component per hectare, day 14 after the treatment;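 further: index 0 to 10 in 10% steps of herbicidal effect with 10 meaning complete death and 0 below 10%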
Outline: as §4

SMILES | Herbicidal effects index number, Echinochloa oryzicola [1] | Herbicidal effects index number, Monochoria vaginalis [2] | herbicidal effect index, S. juncoides Rocxb. [3] | herbicidal effect index, Amaranthus retroflexus [4] | herbicidal effect index, Echinochloa crus-galli [5] | herbicidal effect index, Abutilon theophrasti [6] | herbicidal effect index, Setaria viridis [7] | herbicidal effect index, Amaranthus retroflexus [8] | herbicidal effect index, Abutilon theophrasti [9] | herbicidal effect index, Echinochloa crus-galli [10] | herbicidal effect index, Setaria viridis [11]
CC(C)n1c(=O)c(C(=O)C2=C(O)CCCC2=O)nn(C)c1=O [I-4] | 9 | 9 | 10 | 10 | 9 | 9 | 9 | 9 | 9 | 9 | 9
CCCCn1c(=O)c(C(=O)C2=C(O)CCCC2=O)nn(C)c1=O [I-5] | 10 | 10 | 10 | 10 | 10 | 10 | 7 | 10 | 10 | 10 | 10
Cn1nc(C(=O)C2=C(O)CCCC2=O)c(=O)n(CC(F)(F)F)c1=O [I-10] | 10 | 10 | 10 | 10 | 10 | 10 | 10 | 10 | 9 | 8 | 7
C=CCn1c(=O)c(C(=O)C2=C(O)CCCC2=O)nn(C)c1=O [I-11] | 10 | 10 | 10 | 10 | 10 | 9 | 7 | 10 | 9 | 9 | 9
C#CCn1c(=O)c(C(=O)C2=C(O)CCCC2=O)nn(C)c1=O [I-14] | 10 | 10 | 10 | 10 | 10 | 10 | 10 | 10 | 10 | 9 | 10
Cn1nc(C(=O)C2=C(O)CCCC2=O)c(=O)n(C2CC2)c1=O [I-16] | 9 | 9 | 10 | 10 | 9 | 9 | 9 | 10 | 9 | 9 | 9
COCCCn1c(=O)c(C(=O)C2=C(O)CCCC2=O)nn(C)c1=O [I-41] | 8 | 8 | 10 | 10 | 9 | 8 | 7 | 10 | 10 | 10 | 10
Cn1nc(C(=O)C2=C(O)CCCC2=O)c(=O)n(-c2ccccc2)c1=O [I-50, 6-(2-hydroxy-6-oxocyclohexa-1-enecarbonyl)-2-methyl-4-phenyl-1,2,4-triazine-3,5 (2H, 4H)-dione] | 10 | 10 | 10 | 10 | 10 | 10 | 10 | 10 | 10 | 10 | 10
Cn1nc(C(=O)C2=C(O)CCCC2=O)c(=O)n(-c2ccccc2Cl)c1=O [I-51] | 10 | 10 | 10 | 10 | 10 | 10 | 10 | 10 | 10 | 10 | 10
Cn1nc(C(=O)C2=C(O)CCCC2=O)c(=O)n(-c2cccc(Cl)c2)c1=O [I-52] | 10 | 10 | 10 | 10 | 10 | 10 | 10 | 10 | 10 | 10 | 10
Cn1nc(C(=O)C2=C(O)CCCC2=O)c(=O)n(-c2ccccc2F)c1=O [I-54] | 10 | 10 | 10 | 10 | 10 | 10 | 10 | 10 | 10 | 10 | 10
Cn1nc(C(=O)C2=C(O)CCCC2=O)c(=O)n(-c2cccc(F)c2)c1=O [I-55] | 10 | 10 | 10 | 10 | 10 | 10 | 10 | 10 | 10 | 10 | 10
Cn1nc(C(=O)C2=C(O)CCCC2=O)c(=O)n(-c2ccc(F)cc2)c1=O [I-56] | 10 | 10 | 10 | 9 | 10 | 10 | 10 | 10 | 10 | 10 | 10
Cc1ccccc1-n1c(=O)c(C(=O)C2=C(O)CCCC2=O)nn(C)c1=O [I-57] | 10 | 10 | 10 | 10 | 10 | 10 | 10 | 10 | 10 | 10 | 10
